Read-outs that look alike come from different tables or passages of the source.
System: SARS-CoV-2
Test: microbe, parasite or virus in culture
Assay type: cell-based
[1] = Severe acute respiratory syndrome coronavirus 2, 120 h, half maximal concentration able to recover the cytopathic effect of infection, VeroE6-EGFP cells, 0.01 MOI, 5 days, 8 concentrations, read-out: IC50
[2] = Severe acute respiratory syndrome coronavirus 2, 120 h

Compound	Maximum confluence reached (%) (5 days)	also measured
CCCCOCCOc1ccc(-c2ccc3c(c2)C=C(C(=O)Nc2ccc([S@@+]([O-])Cc4cncn4CCC)cc2)CCCN3CC(C)C)cc1 [compound 65, (-)-(S)-8-[4-(2-Butoxyethoxy)phenyl]-1-isobutyl-N-[4-(1-propyl-1H-imidazol-5-ylmethylsulfinyl)phenyl]-1,2,3,4-tetrahydro-1-benzazocine-5-carboxamide]	70.92	IC50 [1]: 55 µM
CCC(C/C=C/c1ccccc1)(c1ccccc1)N(C)CC1CC1 (single isomer, unassigned; (+)) [compound 89, (+)-N-(Cyclopropylmethyl)-N-[1-ethyl-1,4-diphenyl-3(E)-butenyl]-N-methylamine]	58.34	IC50 [2]: 11.2 µM
Cl.O=C(c1c2ccccc2cc2ccccc12)N1CCC(N2CCC[C@@H](C(=O)N3CCOCC3)C2)CC1 [compound 101, 1-[1'-(Anthracen-9-ylcarbonyl)-1,4'-bipiperidin-3(R)-yl]-1-(4-morpholinyl)methanone hydrochloride]	50.88	
CC(C)N1CCN(c2ccc(C(=O)c3c(-c4ccc(O)cc4)sc4cc(O)ccc34)cc2)CC1 [compound 87, 1-[6-Hydroxy-2-(4-hydroxyphenyl)-1-benzothien-3-yl]-1-[4-(4-isopropylpiperazin-1-yl)phenyl]methanone]	41.04	
O=C(C1CC1)N1CC[C@@H](Cc2n[nH]c(=O)n2-c2ccc(-c3ccc4ccoc4c3)cc2)C1 [compound 67, 4-[4-(1-Benzofuran-6-yl)phenyl]-5-[1-(cyclopropylcarbonyl)pyrrolidin-3(S)-ylmethyl]-3,4-dihydro-2H-1,2,4-triazol-3-one]	31.06	IC50 [2]: 17 µM
COc1cc2c(NC3CCN(C(C)C)CC3)nc(N3CCC(F)(F)CC3)nc2cc1OCCCN1CCCC1 [compound 95, 2-(4,4-Difluoropiperidin-1-yl)-6-methoxy-N-[1-(propan-2-yl)piperidin-4-yl]-7-[3-(pyrrolidin-1-yl)propoxy]quinazolin-4-amine]	31.06	
Cn1c(Nc2ccc(C(F)(F)F)cc2)nc2cc(Oc3ccnc(-c4nc(C(F)(F)F)c[nH]4)c3)ccc21 [compound 70, 1-Methyl-N-[4-(trifluoromethyl)phenyl]-5-[2-[4-(trifluoromethyl)-1H-imidazol-2-yl]pyridin-4-yloxy]-1H-benzimidazol-2-amine]	44.1	
CCN(CC)CCOc1ccc2c(c1)C(=O)c1cc(OCCN(CC)CC)ccc1-2 [compound 84, 2,7-Bis[2-(diethylamino)ethoxy]-9H-fluoren-9-one]	68.89	
COc1ccc2cc1Oc1ccc(cc1)C[C@H]1c3cc(c(OC)cc3CCN1C)Oc1c(OC)c(OC)cc3c1[C@H](C2)N(C)CC3 [compound 79, (1beta)-(S,S)-6,6',7,12-Tetramethoxy-2,2'-dimethylberbaman]	99.64	
O=[N+]([O-])c1ccc(N/N=C/c2sc(N3CCOCC3)nc2-c2ccccc2)c(S(=O)(=O)Nc2ccccc2Cl)c1 [compound 73, N-(2-chlorophenyl)-2-[(2E)-2-[(2-morpholin-4-yl-4-phenyl-1,3-thiazol-5-yl)methylidene]hydrazinyl]-5-nitrobenzenesulfonamide]	53.9	
Nc1nc(N)c2nc(CNc3ccc(C(=O)N[C@@H](CCC(=O)O)C(=O)O)cc3)cnc2n1 [compound 10, N-[4-(2,4-diamino-6-pteridinylmethylamino)benzolyl]-L-glutamic acid]	72.54	
CN1[C@@H]2CC[C@H]1C[C@@H](OC(=O)c1cc(Cl)cc(Cl)c1)C2 [compound 36, 1alphaH,3alpha,5alphaH-Tropan-3-yl-3,5-dichlorobenzoate; 3,5-Dichlorobenzoic acid endo-8-methyl-8-azabicyclo[3.2.1]oct-3-yl ester]	69.05	IC50 [2]: 43.9 µM
O=C(O)c1ccc(N2C(=O)C(=Cc3ccc(-c4ccc([N+](=O)[O-])cc4)o3)C=C2c2ccccc2)cc1 [compound 105, 4-[3-[5-(4-Nitrophenyl)furan-2-ylmethylene]-2-oxo-5-phenyl-2,3-dihydro-1H-pyrrol-1-yl]benzoic acid]	52.15	IC50 [2]: 236 µM
C[C@H]1CCC/C=C/[C@@H]2C[C@H](O)C[C@H]2[C@H](O)/C=C/C(=O)O1 (relative stereo) [compound 47, (1R,2S,7S,13S,15S)-2,15-Dihydroxy-7-methyl-6-oxabicyclo[11.3.0]hexadeca-3(E),11(E)-dien-5-one [1S-(1R*,2E,6R*,10E,11aR*,13R*,14a S*)]-1,6,7,8,9,11a,12,13,14,14a-Decahydro-1,13-dihydroxy-6-methyl-4H-cyclopent[f]oxacyclotridecin-4-one]		Emax (Severe acute respiratory syndrome coronavirus 2, 120 h, 5 days, read-out: Maximum confluence reached (%)): 122%
COc1cc2c(N3CCN(C(=O)Nc4ccc(OC(C)C)cc4)CC3)ncnc2cc1OCCCN1CCCCC1 [compound 35, N-(4-Isopropoxyphenyl)-4-[6-methoxy-7-[3-(1-piperidinyl)propoxy]quinazolin-4-yl]piperazine-1-carboxamide]	80.09	
C/C(=C\c1ccc(C(=O)O)cc1)c1ccc2c(c1)C(C)(C)CCC2(C)C [compound 26, 4-[2-(5,5,8,8-Tetramethyl-5,6,7,8-tetrahydronaphthalen-2-yl)-1(E)-propenyl]benzoic acid]	105.73	IC50 [2]: 33.7 µM
Cc1ccc(NC(=O)Nc2cc(C(F)(F)F)ccc2F)cc1Nc1ccc2c(c1)NC(=O)C2=Cc1ccc[nH]1 [compound 92, 1-[2-Fluoro-5-(trifluoromethyl)phenyl]-3-[4-methyl-3-[2-oxo-3-(1H-pyrrol-2-ylmethylene)-2,3-dihydro-1H-indol-6-ylamino]phenyl]urea]	75.5	IC50 [2]: 5.23 µM
CN(Cc1cnc2nc(N)nc(N)c2n1)c1ccc(C(=O)N[C@@H](CCC(=O)O)C(=O)O)cc1 [compound 1, N-[4-[N-(2,4-Diaminopteridin-6-ylmethyl)-N-methylamino]benzoyl]-L-glutamic acid]		IC50 [1]: 0.05 µM; Maximum confluence reached (%) (confluence of SARS-CoV-2 infected VeroE6-EGFP cells after test compound treatment compared to control wells, 5 days): 64%
CNCc1ccc(-c2cc(-c3nc(-c4ccc(S(=O)(=O)C(C)C)cc4)cnc3N)on2)cc1 [compound 34, 3-[3-[4-[(Methylamino)methyl]phenyl]-1,2-oxazol-5-yl]-5-[4-(propan-2-ylsulfonyl)phenyl]pyrazin-2-amine]	99.21	
N#Cc1cccc(C#N)c1-c1nc2c3ccc(Cl)cc3c3ccccc3c2[nH]1 [compound 64, 2-(6-Chloro-1H-phenanthro[9,10-d]imidazol-2-yl)benzene-1,3-dicarbonitrile]	98.48	
C#CCC(Cc1cnc2nc(N)nc(N)c2n1)c1ccc(C(=O)N[C@@H](CCC(=O)O)C(=O)O)cc1 (stereo partly drawn) [compound 3, N-[4-[2-(2,4-Diaminopteridin-6-yl)-1-(2-propynyl)ethyl]benzoyl]-L-glutamic acid 10-Propargyl-10-deazaaminopterin]	76.65	

Source: patent EP4000606A1, “COMPOUNDS FOR CORONAVIRUS INFECTION TREATMENT AND/OR PREVENTION” (priority 2020, dated 2022)
